Data from patent publication US12371432B2, “Haloallylamine compounds and application thereof” (TransThera Sciences (Nanjing), Inc., priority 2019, dated 2025).
Counter-ions that a name gives are not always drawn.

Key:
rhVAP-1 = target: T1, rhVAP-1 (Homo sapiens, UniProt Q16853); experiment: Inhibitory activity against rhVAP-1 enzyme (Biological Example 2); type: biochemical; settings: Table 2; benzylamine substrate, Amplex Red/HRP
T1 construct: purchased PeproTech
T1 sequence (Q16853 27-763 limits assumed): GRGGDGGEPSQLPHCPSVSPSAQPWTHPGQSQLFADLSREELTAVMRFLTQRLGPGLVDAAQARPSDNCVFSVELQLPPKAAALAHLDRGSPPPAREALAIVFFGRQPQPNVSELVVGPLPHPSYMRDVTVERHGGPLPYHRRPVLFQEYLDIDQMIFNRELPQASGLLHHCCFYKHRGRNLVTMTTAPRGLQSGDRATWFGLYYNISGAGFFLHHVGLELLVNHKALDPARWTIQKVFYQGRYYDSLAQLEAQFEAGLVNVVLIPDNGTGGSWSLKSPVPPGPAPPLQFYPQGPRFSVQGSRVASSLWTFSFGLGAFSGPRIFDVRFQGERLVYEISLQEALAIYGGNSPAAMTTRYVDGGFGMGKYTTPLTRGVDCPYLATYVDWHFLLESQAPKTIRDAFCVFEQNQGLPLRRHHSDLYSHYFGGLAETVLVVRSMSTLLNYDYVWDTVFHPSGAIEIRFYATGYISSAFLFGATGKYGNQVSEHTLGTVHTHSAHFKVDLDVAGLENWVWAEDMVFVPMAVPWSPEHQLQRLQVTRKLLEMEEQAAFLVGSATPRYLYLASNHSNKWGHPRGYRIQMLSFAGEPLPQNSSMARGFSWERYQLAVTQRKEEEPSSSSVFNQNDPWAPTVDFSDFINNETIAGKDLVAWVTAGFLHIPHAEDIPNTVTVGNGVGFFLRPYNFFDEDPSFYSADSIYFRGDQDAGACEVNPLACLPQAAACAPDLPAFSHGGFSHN
Method: 1. Inhibitory Activity of Compounds Against rhVAP-1 Enzyme
(§1) (1) Instrument, Consumable and Reagent
Microplate reader (Perkin Elmer, Nivo 5S), black unclear-bottom 96-well plate (Corning) and rhVAP-1 (PeproTech)
(§2) (2) Preparation of Concentration Gradient Compound Solutions
(§3) An appropriate amount of the compound to be tested was taken, dissolved in DMSO to 10 mM and then stored. Before the study, an appropriate amount of mother liquor of the 10 mM compound to be tested was taken and gradiently diluted 3-fold with DMSO, 10 concentration gradients in total. Each concentration gradient was then diluted 100-fold with 0.1 M of PBS.
(§4) (3) Preparation of Enzyme Solutions
An appropriate amount of protein diluent was added into rhVAP-1 powder, obtaining 1 mg/mL of mother liquor for storage. Before the study, PBS was used to carry out dilution to obtain enzyme solutions of 4× concentrations.
(§5) (4) Preparation of Substrate Mixtures of 2× Concentrations
(§6) An appropriate amount of benzylamine was weighed and dissolved with PBS to obtain 200 mM of benzylamine solution. The benzylamine solution was added with 2 mM of Amplex Red mother liquor and 500 U/mL of HRP mother liquor and diluted with PBS to obtain substrate mixtures of 2× concentrations.
(§7) 10 μL compound solutions of different concentrations, 25 μL rhVAP-1 enzyme solutions of 4× concentrations and 15 μL of PBS were first added into a 96-well plate, shaken to be mixed uniformly and then incubated at 37° C. for 30 min. 50 μL substrate mixtures of 2× concentrations were then added into each well, and the microplate reader was immediately used to perform detection with 580 nm (20 nm) exciting light and 620 nm (10 nm) emission light for 5 min each time, 30 min in total. The inhibition rate was calculated according to the following formula: V (RFU/min)=(Ft (RFU)−F0 (RFU))/(time(min)) Inhibition rate (%)=100%−Vcmpd (RFU/min)/Vmax (RFU/min)×100%
(§8) V: fluorescence change rate; Ft: fluorescence reading at time point t; F0: initial fluorescence reading; Time: duration t; Vcmpd: fluorescence change rate of tested compound; Vmax: Max hole fluorescence change rate.
(§9) (6) Fitting of Dose-Response Curve
(§10) With the log value of concentration as the X axis and the percent inhibition rate as the Y axis, the log (inhibitor) vs. response-variable slope of analysis software GraphPad Prism 5 was used to fit a dose-response curve, thus obtaining the IC50 value of activity of each compound against the enzyme.

rhAOC1 = target: T2, rhAOC1 (Homo sapiens, UniProt P19801); experiment: Selectivity against rhAOC1 enzyme (Biological Example 2); type: biochemical; settings: Table 2; histamine substrate, Amplex Red/HRP
T2 construct: purchased R&D
T2 sequence (P19801 20-751): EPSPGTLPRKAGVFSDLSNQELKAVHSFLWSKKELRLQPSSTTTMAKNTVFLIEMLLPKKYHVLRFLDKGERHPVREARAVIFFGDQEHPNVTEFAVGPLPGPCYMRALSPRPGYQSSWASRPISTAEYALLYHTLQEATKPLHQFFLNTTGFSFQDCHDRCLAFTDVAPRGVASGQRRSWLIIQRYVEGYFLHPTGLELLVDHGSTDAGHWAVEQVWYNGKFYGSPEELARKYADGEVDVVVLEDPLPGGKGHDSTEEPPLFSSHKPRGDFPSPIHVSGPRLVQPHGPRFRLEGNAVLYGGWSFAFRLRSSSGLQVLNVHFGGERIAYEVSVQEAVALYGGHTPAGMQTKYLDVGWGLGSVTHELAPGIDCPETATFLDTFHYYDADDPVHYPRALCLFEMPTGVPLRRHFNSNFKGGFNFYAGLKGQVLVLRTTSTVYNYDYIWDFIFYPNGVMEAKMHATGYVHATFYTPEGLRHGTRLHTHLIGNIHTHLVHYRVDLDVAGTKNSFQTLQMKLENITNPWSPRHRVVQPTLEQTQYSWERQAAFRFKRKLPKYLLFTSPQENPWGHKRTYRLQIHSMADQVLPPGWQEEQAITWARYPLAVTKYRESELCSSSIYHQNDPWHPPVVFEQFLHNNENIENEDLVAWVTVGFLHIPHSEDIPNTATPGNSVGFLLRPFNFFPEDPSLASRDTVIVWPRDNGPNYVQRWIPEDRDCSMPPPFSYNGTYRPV
Method: 2. Selectivity of Compounds Against rhAOC1 Enzyme
as §1
Microplate reader (Perkin Elmer, Nivo 5S), black unclear-bottom 96-well plate (Corning) and rhAOC1 (R&D)
as §2
as §3, with “10-fold” for “100-fold”
as §4
An appropriate amount of rhAOC1 mother liquor with a concentration of 0.441 mg/mL was taken and diluted with an appropriate amount of 50 mM HEPES buffer solution to obtain enzyme solutions of 4× concentrations.
as §5
as §6, with “histamine” for “benzylamine”, “50 mM of HEPES buffer solution” for “PBS”, “20” for “200”
as §7, with “rhAOC1” for “rhVAP-1”, “50 mM HEPES buffer solution” for “PBS”, “detect fluorescence intensity of each well” for “perform detection”
as §8, §9, §10

Row | SMILES | IC50 (rhVAP-1) [µM] | IC50 (rhAOC1) [µM]
1 | NC/C(=C\F)Cn1cc2c(n1)CCN(C1CCC1)C2=O [Compound A9 hydrochloride, (E)-2-(2-(aminomethyl)-3-fluoroallyl)-5-cyclobutyl-2,5,6,7-tetrahydro-4H-pyrazolo[4,3-c]pyridin-4-one] | 0.037 | 0.911
2 | NC/C(=C\F)Cn1cc2c(n1)CCNC2=O [Compound A23 hydrochloride, (E)-2-(2-(aminomethyl)-3-fluoroallyl)-2,5,6,7-tetrahydro-4H-pyrazolo[4,3-c]pyridin-4-one] | 0.039 | 
3 | CC(C)(C)N1CCc2c(cnn2C/C(=C/F)CN)C1=O [Compound A21, (E)-1-(2-(aminomethyl)-3-fluoroallyl)-5-(tert-butyl)-1,5,6,7-tetrahydro-4H-pyrazolo[4,3-c]pyridin-4-one] | 0.096 | 4.05
4 | NC/C(=C\F)Cn1cc2c(n1)CCN(C1CCCC1)C2=O [Compound A10 hydrochloride, (E)-2-(2-(aminomethyl)-3-fluoroallyl)-5-cyclopentyl-2,5,6,7-tetrahydro-4H-pyrazolo[4,3-c]pyridin-4-one] | 0.04 | 1.24
5 | CC(C)(C)N1Cc2nn(C/C(=C/F)CN)cc2C1=O [Compound A13, (E)-2-(2-(aminomethyl)-3-fluoroallyl)-5-(tert-butyl)-5,6-dihydropyrrolo[3,4-c]pyrazol-4(2H)-one] | 0.058 | 4.18
6 | CC(C)N1CCc2nn(C/C(=C/F)CN)cc2C1=O [Compound A27 hydrochloride, (E)-2-(2-(aminomethyl)-3-fluoroallyl)-5-isopropyl-2,5,6,7-tetrahydro-4H-pyrazolo[4,3-c]pyridin-4-one] | 0.112 | 9.65
7 | CN1CCc2nn(C/C(=C/F)CN)cc2C1=O [Compound A24 hydrochloride, (E)-2-(2-(aminomethyl)-3-fluoroallyl)-5-methyl-2,5,6,7-tetrahydro-4H-pyrazolo[4,3-c]pyridin-4-one] | 0.054 | 4.72
8 | CCN1Cc2cnn(C/C(=C/F)CN)c2C1=O [Compound A31 hydrochloride, (E)-1-(2-(aminomethyl)-3-fluoroallyl)-5-ethyl-4,5-dihydropyrrolo[3,4-c]pyrazol-6(1H)-one] | 0.053 | 8.28

Next, values leading:

Row | IC50 (rhVAP-1) [µM] | IC50 (rhAOC1) [µM] | SMILES
9 | 0.012 |  | NC/C(=C\F)Cn1cc2c(n1)CCN(CC1CC1)C2=O [Compound A48 hydrochloride, (E)-2-(2-(aminomethyl)-3-fluoroallyl)-5-(cyclopropylmethyl)-2,5,6,7-tetrahydro-4H-pyrazolo[4,3-c]pyridin-4-one]
10 | 0.067 | 1.08 | NC/C(=C\F)Cn1ccc2cc(C(=O)N3CCC3)ccc21 [Compound C13 hydrochloride, (E)-(1-(2-(aminomethyl)-3-fluoroallyl)-1H-indol-5-yl)(azetidin-1-yl)methanone]
11 | 0.017 |  | CCC(C)(C)N1CCc2nn(C/C(=C/F)CN)cc2C1=O [Compound A49 hydrochloride, (E)-2-(2-(aminomethyl)-3-fluoroallyl)-5-(tert-pentyl)-2,5,6,7-tetrahydro-4H-pyrazolo[4,3-c]pyridin-4-one]
12 | 0.063 | 8.38 | COC1(C)CCN(C(=O)c2ccc3c(ccn3C/C(=C/F)CN)c2)CC1 [Compound C15 hydrochloride, (E)-(1-(2-(aminomethyl)-3-fluoroallyl)-1H-indol-5-yl)(4-methoxy-4-methylpiperidin-1-yl)methanone]
13 | 0.05 | 13.1 | COC1CCN(C(=O)c2ccc3c(ccn3C/C(=C/F)CN)c2)CC1 [Compound C14 hydrochloride, (E)-(1-(2-(aminomethyl)-3-fluoroallyl)-1H-indol-5-yl)(4-methoxypiperidin-1-yl)methanone]
14 | 0.089 | 12.5 | CC(C)(C)NC(=O)c1cnn(C/C(=C/F)CN)c1 [Compound B3, (E)-1-(2-(aminomethyl)-3-fluoroallyl)-N-(tert-butyl)-1H-pyrazole-4-carboxamide]
15 | 0.02 |  | COCCN1CCc2nn(C/C(=C/F)CN)cc2C1=O [Compound A47 hydrochloride, (E)-2-(2-(aminomethyl)-3-fluoroallyl)-5-(2-methoxyethyl)-2,5,6,7-tetrahydro-4H-pyrazolo[4,3-c]pyridin-4-one]
16 | 0.055 | 5.38 | CCNC(=O)c1cnn(C/C(=C/F)CN)c1 [Compound B2, (E)-1-(2-(aminomethyl)-3-fluoroallyl)-N-ethyl-1H-pyrazole-4-carboxamide]
17 | 0.051 | 5.93 | NC/C(=C\F)Cn1cc(C(=O)NC2CC2)cn1 [Compound B4 hydrochloride, (E)-1-(2-(aminomethyl)-3-fluoroallyl)-N-cyclopropyl-1H-pyrazole-4-carboxamide]
18 | 0.014 |  | NC/C(=C\F)Cn1cc(C(=O)Nc2ccc(Cl)cc2)cn1 [Compound B28, (E)-1-(2-aminomethyl-3-fluoroallyl)-N-4-chlorophenyl-1H-pyrazole-4-carboxamide]
